Reference: patent publication US20220127258A1, “AROMATIC RING OR HETEROAROMATIC RING COMPOUNDS, PREPARATION METHOD THEREFOR AND MEDICAL USE THEREOF” (The National Institutes of Pharmaceutical R&D Co., Ltd., priority 2019, published 2022)

Target: T1, hERG channel (Homo sapiens, UniProt Q12809)
T1 construct: host or cells: HEK293 stably expressing hERG
Test: Effect on hERG channel, whole-cell membrane clamp
Format: cell-based
Conditions: for hERG current inhibition ratio: n=3
Protocol: Extracellular fluid: 140 mM NaCl, 3.5 mM KCl, 1 mM MgCl2, 2 mM CaCl2, 10 mM glucose, 10 mM HEPES, 1.25 mM NaH2PO4, pH=7.4 (adjusted by NaOH).
Intracellular fluid: 20 mM KCl, 115 mM K-aspartic acid, 1 mM MgCl2, 5 mM EGTA, 10 mM HEPES, 2 mM Na2-ATP, pH=7.2 (adjusted by KOH).
The stock solution of the compound of Example 8 of the present invention (30.26 mM solution in DMSO) was successively diluted with 10 mL of extracellular fluid to obtain 0.3 μM, 1 μM, 3 μM, […], and 30 μM solutions.
The HEK293 cell line stably expressing the hERG potassium channel (supplier Creacell, catalog number A-0302) was cultured in DMEM medium containing 10% fetal bovine serum and 0.8 mg/mL G418. The culture temperature was 37° C., and the carbon dioxide concentration was 5%.
Cell passage: The old medium was removed, and the cells were washed with PBS once. 1 mL of TrypLE™ expression solution was added, and the cells were incubated at 37° C. for 0.5 minutes. When the cells detached from the bottom of the dish, 5 mL of 37° C. pre-warmed complete medium (DMEM medium containing 10% fetal bovine serum and 0.8 mg/mL G418) was added. The cell suspension was gently pipetted to separate the aggregated cells. The cell suspension was transferred to a sterile centrifuge tube, and centrifuged at 1000 rpm for 5 minutes to collect the cells. Expansion or maintenance culture, the cells were seeded in a 6 cm cell culture dish, and each cell culture dish was seeded with 2.5×10^5 cells (final volume: 5 mL). In order to maintain the electrophysiological activity of the cell, the cell density must not exceed 80%. The cells were separated by TrypLE™ expression solution, and 3×10^3 cells were placed on a cover slide and cultured in a 24-well plate (final volume: 500 μL). Membrane clamp test was carried out after 18 hours.
The voltage stimulus protocol of the whole-cell membrane clamp for recording the whole-cell hERG potassium current is as follows. When a whole-cell sealing was formed, the membrane clamp was disposed at −80 mV. The clamp voltage was depolarized from −80 mV to +30 mV for 2.5 seconds, and then quickly maintained at −50 mV for 4 seconds, which can excite the tail current of the hERG channel. −50 mV was used for leakage current detection in the test. The data was collected repeatly every 10 seconds to observe the effect of the compound on hERG tail current. The test data was collected by EPC-10 amplifier (HEKA) and stored in PatchMaster (HEKA) software.
A capillary glass tube (BF150-86-10, Sutter Instruments) was prepared into a recording electrode using a microelectrode puller (P97, Sutter Instruments). Microelectrode manipulator (MP285, Sutter Instruments) was manipulated under an inverted microscope (IX71, Olympus) to contact the recording electrode to the cell, and suction was applied under negative pressure to form a […]. After forming the […], a rapid capacitance compensation was performed, then a negative pressure was applied to break the cell membrane and create a whole-cell recording mode. A slow capacitor compensation was performed, and the membrane capacitance and series resistance were recorded without leakage compensation.
When the hERG current of the whole-cell record was stable, administration was conducted. Each concentration was tested for 5 minutes (or until the current was stable) before testing the next concentration. Multiple concentrations were tested for each test compound. The cover slide seeded with the cell was placed in a recording bath of an inverted microscope. The test compound and the compound-free extracellular fluid flowed through the recording chamber by gravity perfusion from low concentrations to high concentrations to act on the cell. Liquid exchange was performed using a vacuum pump in the record. For each cell, the current detected in the compound-free extracellular fluid was used as the control. Three cells were repeatly tested independently. All electrophysiological experiments were carried out at room temperature.

T1 sequence (Q12809 whole entry): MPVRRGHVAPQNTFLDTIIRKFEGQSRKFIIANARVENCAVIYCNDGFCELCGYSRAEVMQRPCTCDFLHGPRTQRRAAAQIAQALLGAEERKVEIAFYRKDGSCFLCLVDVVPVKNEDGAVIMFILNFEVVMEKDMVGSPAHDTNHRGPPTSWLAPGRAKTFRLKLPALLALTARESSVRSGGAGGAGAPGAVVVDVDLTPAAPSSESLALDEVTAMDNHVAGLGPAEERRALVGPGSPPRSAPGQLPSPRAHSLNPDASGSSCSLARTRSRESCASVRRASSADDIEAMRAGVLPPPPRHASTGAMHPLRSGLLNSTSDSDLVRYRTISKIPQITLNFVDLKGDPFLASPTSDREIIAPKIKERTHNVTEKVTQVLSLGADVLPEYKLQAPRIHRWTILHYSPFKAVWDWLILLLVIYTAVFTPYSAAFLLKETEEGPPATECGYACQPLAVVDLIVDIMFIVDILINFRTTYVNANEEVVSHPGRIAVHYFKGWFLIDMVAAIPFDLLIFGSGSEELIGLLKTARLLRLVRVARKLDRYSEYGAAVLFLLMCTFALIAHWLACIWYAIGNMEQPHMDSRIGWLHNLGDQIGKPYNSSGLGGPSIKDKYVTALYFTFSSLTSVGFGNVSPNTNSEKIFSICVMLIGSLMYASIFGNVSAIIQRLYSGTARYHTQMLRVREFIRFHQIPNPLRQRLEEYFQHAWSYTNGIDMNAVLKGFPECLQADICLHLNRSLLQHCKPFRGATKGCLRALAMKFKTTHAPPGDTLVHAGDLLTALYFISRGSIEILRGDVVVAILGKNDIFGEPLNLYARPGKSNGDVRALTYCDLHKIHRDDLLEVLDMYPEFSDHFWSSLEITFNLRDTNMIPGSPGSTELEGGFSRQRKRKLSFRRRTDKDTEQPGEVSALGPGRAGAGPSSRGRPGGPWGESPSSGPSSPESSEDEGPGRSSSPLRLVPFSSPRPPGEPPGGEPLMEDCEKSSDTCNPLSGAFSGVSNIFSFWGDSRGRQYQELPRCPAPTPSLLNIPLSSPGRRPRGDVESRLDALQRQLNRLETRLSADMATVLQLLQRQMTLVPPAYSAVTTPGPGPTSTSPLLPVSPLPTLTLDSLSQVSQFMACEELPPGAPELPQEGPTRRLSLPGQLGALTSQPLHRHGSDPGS

O=C(O)c1ccc(-c2nnc(N3[C@@H]4CC[C@H]3C[C@@H](OCc3c(-c5c(Cl)cccc5Cl)noc3C3CC3)C4)o2)cc1 [Example 8, 4-(5-((1R,3r,5S)-3-((5-cyclopropyl-3-(2,6-dichlorophenyl)isoxazol-4-yl)methoxy)-8-azabicyclo[3.2.1]octan-8-yl)-1,3,4-oxadiazol-2-yl)benzoic acid]
hERG current inhibition ratio (0.3 μM, HEK293 cell line stably expressing hERG): −2.37 ± 0.62%
hERG current inhibition ratio (1 μM, HEK293 cell line stably expressing hERG): −3.09 ± 0.30%
hERG current inhibition ratio (3 μM, HEK293 cell line stably expressing hERG): 0.48 ± 1.78%
hERG current inhibition ratio (10 μM, HEK293 cell line stably expressing hERG): 12.65 ± 2.25%
hERG current inhibition ratio (30 μM, HEK293 cell line stably expressing hERG): 31.67 ± 1.86%
IC50 (HEK293 cell line stably expressing hERG, whole-cell membrane clamp, read-out: hERG semi-inhibiting concentration (IC50)): > 30 µM
inhibitory effect on hERG channel (in words) (conclusion of Test Example 3): no inhibitory effect on hERG channel
